The text below walks through data of US12262710B2, “Fungicidal compounds” (SYNGENTA CROP PROTECTION AG, priority 2019, dated 2025).

Assay [1] has as its system Monographella nivalis. Kind of assay: Monographella nivalis syn. Microdochium nivale (snow mould, foot rot of cereals), liquid culture growth inhibition. It is filed as cell-based. As to conditions: nutrient broth (PDB), 72 hrs, photometric at 620 nm, compared to untreated control. On the procedure:
Conidia of the fungus from cryogenic storage were directly mixed into nutrient broth (PDB potato dextrose broth). A DMSO solution of the test compounds was placed into a microtiter plate (96-well format) and the nutrient broth containing the fungal spores was added to it. The test plates were incubated at 24° C. and the inhibition of growth was determined photometrically after 72 hrs at 620 nm. […] Cercospora arachidicola (Brown Leaf Spot of Peanut): […]

Assay [2] deals with Puccinia recondita f. sp. tritici. Put plainly: Puccinia recondita (brown rust), preventative, wheat leaf segments. The format is in vivo. Conditions: foliar, 192 h, 8 dpi, compared to untreated control. On the procedure: Wheat leaf segments are placed on agar in multiwell plates (24-well format) and sprayed with test solutions. After drying, the leaf segments are inoculated with a spore suspension of the fungus. After appropriate incubation the activity of a compound is assessed 8 dpi (days after inoculation) as preventative fungicidal activity.

The test system of assay [3] is Erysiphe graminis f. sp. tritici. Kind of assay: Erysiphe graminis f. sp. tritici (wheat powdery mildew), wheat leaf segments, preventive. It is filed as in vivo. Conditions: Blumeria graminis, foliar, 168 h, 7 dpi, compared to untreated control. On the procedure:
Wheat leaf segments are placed on agar in multiwell plates (24-well format) and sprayed with test solutions. After drying, the leaf disks are inoculated with spores of the fungus. After appropriate incubation the activity of a compound is assessed 7 dpi (days post inoculation) as preventive fungicidal activity.

The test system of assay [4] is Mycosphaerella arachidis. Put plainly: Mycosphaerella arachidis syn. Cercospora arachidicola (brown leaf spot of peanut), liquid culture growth inhibition. It is filed as cell-based. Conditions: nutrient broth (PDB), approximately 5-6 days, photometric at 620 nm, compared to untreated control. The procedure: Conidia of the fungus from cryogenic storage were directly mixed into nutrient broth (PDB potato dextrose broth). A DMSO solution of the test compounds was placed into a microtiter plate (96-well format) and the nutrient broth containing the fungal spores was added to it. The test plates were incubated at 24° C. and the inhibition of growth was determined photometrically after approximately 5-6 […] at 620 nm.

Assay [5] concerns Glomerella lagenarium. Kind of assay: Glomerella lagenarium syn. Colletotrichum lagenarium (anthracnose of cucurbits), liquid culture growth inhibition. As to conditions: Colletotrichum orbiculare, nutrient broth (PDB), 72 hrs, photometric at 620 nm, compared to untreated control. It is filed as cell-based. The procedure: Glomerella lagenarium Syn. Colletotrichum lagenarium (Anthracnose of Cucurbits): Conidia of the fungus from cryogenic storage were directly mixed into nutrient broth (PDB potato dextrose broth). A DMSO solution of the test compounds was placed into a microtiter plate (96-well format) and the nutrient broth containing the fungal spores was added to it. The test plates were incubated at 24° C. and the inhibition of growth was determined photometrically after 72 hrs at 620 nm. […]

Assay [6] has as its system Plasmopara viticola. Kind of assay: Plasmopara viticola (downy mildew of grapevine), grape vine leaf disks, preventive. The format is in vivo. Conditions: foliar, 168 h, 7 dpi, compared to untreated control. The procedure: Grape vine leaf disks are placed on agar in multiwell plates (24-well format) and sprayed with test solutions. After drying, the leaf disks are inoculated with a spore suspension of the fungus. After appropriate incubation the activity of a compound is assessed 7 dpi (days after inoculation) as preventive fungicidal activity.

In assay [7] the test system is Pyricularia oryzae. Kind of assay: whole plant or invertebrate. It is filed as in vivo. Conditions: foliar, 120 h, read-out: control of Pyricularia oryzae.
Assay [8] has as its system Puccinia recondita f. sp. tritici. Put plainly: Puccinia recondita (brown rust), curative, wheat leaf segments. The format is in vivo. As to conditions: foliar, 192 h, sprayed 1 day after inoculation, 8 dpi, compared to untreated control. On the procedure: Wheat leaf segments are placed on agar in multiwell plates (24-well format). The leaf segments are inoculated with a spore suspension of the fungus and sprayed with test solutions 1 day after inoculation. After appropriate incubation the activity of a compound is assessed 8 dpi (days after inoculation) as curative fungicidal activity.

Assay [9] concerns Phakopsora pachyrhizi. Put plainly: Example E: comparative activity against Phakopsora pachyrhizi (soybean rust), soybean leaf disks sprayed. Conditions: 0.025% Tween20, approx. 12 dpi. The format is in vivo. On the procedure:
Method: Compounds to be tested are prepared as DMSO solutions which are diluted to the appropriate concentration with 0.025% Tween20 just before spraying. Soybean leaf disks are placed on agar in multiwell plates (24-well format) and sprayed with test solutions. After drying, the leaf disks are inoculated with a spore suspension of the fungus. After appropriate incubation the activity of a compound is assessed approx. 12 dpi (days after inoculation) as preventive fungicidal activity. The data are presented as the percentage of disease control of each compound for the biological tests and testing rates described below in Table J.

Assay [10] relates to Puccinia recondita. Put plainly: Example C: comparative activity against Puccinia recondita (brown rust), curative, wheat leaf segments. The format is in vivo. As to conditions: 8 dpi. On the procedure: Method; Wheat leaf segments are placed on agar in multiwell plates (24-well format). The leaf segments are inoculated with a spore suspension of the fungus and sprayed with test solutions 1 day after inoculation. After appropriate incubation the activity of a compound is assessed 8 dpi (days after inoculation) as curative fungicidal activity. The data are presented as the percentage of disease control of each compound for the biological tests and testing rates described below in table H.

The test system of assay [11] is Phakopsora pachyrhizi. Put plainly: Example D: comparative activity against Phakopsora pachyrhizi (soybean rust), soybean plants sprayed, leaf disks cut from treated plants. It is filed as in vivo. Conditions: 0.1% OCHIMA, leaf disks cut one day after application, approx. 12 dpi. On the procedure: Method: Soybean plants are sprayed in a spray chamber with formulated DMSO compound solutions which are diluted to the appropriate concentration with 0.1% […] (adjuvant comprising polyethoxylated sorbitol hexaoleate and tris(2-ethylhexyl) phosphate) just before spraying. Leaf disks are cut from treated plants and placed on agar into 24-well plates one day after application. After, the leaf disks are inoculated with a spore suspension of the fungus. After appropriate incubation the activity of a compound is assessed approx. 12 dpi (days after inoculation) as preventive fungicidal activity. The data are presented as the percentage of disease control of each compound for the biological tests and testing rates described below in Table 1.

The term inhibition of growth denotes the change of the read-out against control, counted positive when it falls. Read a low inhibition of growth as a response near the control.

In the case of `CO/C=C(\Oc1cc(C2=CCC(O)CC2)ccc1C)C(=O)OC` (stereo not drawn) [F.8, methyl (Z)-2-[5-(4-hydroxycyclohexen-1-yl)-2-methyl-phenoxy]-3-methoxy-prop-2-enoate], the inhibition of growth at 20 ppm in [1] and in assay [4] was not below 80% in each case. The pest or weed control at 200 ppm in assay [2] and in assay [3] was not below 80% throughout.
Consider `CO/C=C(\Oc1cc(C2CCCCCC2)ccc1C)C(=O)OC` [E.3, methyl (Z)-2-(5-cyclohepty1-2-methyl-phenoxy)-3-methoxy-prop-2-enoate], for which the inhibition of growth at 20 ppm in assay [1], in [5] and in [4] was not below 80% in each case. Also, the pest or weed control at 200 ppm in assay [6], in assay [2], in assay [7] and in assay [3] was not below 80% throughout.
`CO/C=C(\Oc1cc(C2CCCCC2)ccc1Br)C(=O)OC` [E.8, methyl (Z)-2-(2-bromo-5-cyclohexyl-phenoxy)-3-methoxy-prop-2-enoate]: the inhibition of growth at 20 ppm in [1] and in [4] was not below 80% throughout. Besides, the pest or weed control at 200 ppm in assay [6], in [2] and in [3] was not below 80% throughout.
On to `CO/C=C(\Oc1cc(C2=CCCCCC2)ccc1C)C(=O)OC` [F.5, methyl (Z)-2-[5-(cyclohepten-1-yl)-2-methyl-phenoxy]-3-methoxy-prop-2-enoate], for which the inhibition of growth at 20 ppm in [1], in assay [5] and in assay [4] was not below 80% each time. Also, the pest or weed control at 200 ppm in assay [6] and in assay [3] was not below 80% each time.
As to `CO/C=C(\Oc1cc(C2CCCCC2)ccc1F)C(=O)OC` [E.11, methyl (Z)-2-(5-cyclohexy1-2-fluoro-phenoxy)-3-methoxy-prop-2-enoate], the inhibition of growth at 20 ppm in assay [1], in [5] and in assay [4] was not below 80% in each case. For the same molecule, the pest or weed control at 200 ppm in assay [6] and in [3] was not below 80% throughout.
With `CO/C=C(\Oc1cc(C2CCC(OC)CC2)ccc1C)C(=O)OC` (stereo not drawn) [E.19, methyl (Z)-3-methoxy-2-[5-(4-methoxycyclohexyl)-2-methyl-phenoxy]prop-2-enoate], the inhibition of growth at 20 ppm in assay [1], in assay [5] and in [4] was not below 80% in each case. For the same molecule, the pest or weed control at 200 ppm in [6], in assay [2], in [8] and in [3] was not below 80% throughout.
As for `CO/C=C(\Oc1cc(C2CCCCC2)ccc1OC)C(=O)OC` [E.10, methyl (Z)-2-(5-cyclohexy1-2-methoxy-phenoxy)-3-methoxy-prop-2-enoate], the inhibition of growth at 20 ppm in assay [1] and in assay [4] was not below 80% each time. Further, the pest or weed control at 200 ppm in assay [6], in assay [2] and in [3] was not below 80% in each case.
As to `CO/C=C(\Oc1cccc(C(C)(C)C)c1)C(=O)OC` [Compound X-2, reference compound], the “control (%) Phakopsora pachyrhizi (Soybean rust)” value (“control (%) Phakopsora pachyrhizi” below) in assay [9] (0.6 ppm) was found to be 0%; in assay [9] (2 ppm), 0%; in assay [9] (6 ppm) it was 0%; in assay [9] (20 ppm) it was 0%; in assay [9] (60 ppm), 10%; in assay [9] (200 ppm), 10%. Besides, the “control (%) Phakopsora pachyrhizi” value in [11] (6 ppm), in assay [11] (20 ppm), in [11] (60 ppm) and in assay [11] (200 ppm) was 0% in each case. In addition, the “control (%) Puccinia recondita (Brown rust), curative” value in assay [10] (20 ppm), in assay [10] (60 ppm) and in assay [10] (200 ppm) was 0% throughout.
With `CO/C=C(\Oc1cc(C#CC2CCCCC2)ccc1C)C(=O)OC` [Compound X-1, reference compound], the “control (%) Phakopsora pachyrhizi” value was 0% in [9] (0.6 ppm); 0% in assay [9] (2 ppm); 35% in assay [9] (6 ppm); 80% in assay [9] (20 ppm); 100% in [9] (60 ppm); 100% in [9] (200 ppm). In addition, the “control (%) Phakopsora pachyrhizi” value in assay [11] (6 ppm) was 0%; in [11] (20 ppm) it was 0%; in [11] (60 ppm) it was 0%; in assay [11] (200 ppm), 63%. Also, the “control (%) Puccinia recondita (Brown rust), curative” value in assay [10] (20 ppm), in assay [10] (60 ppm) and in [10] (200 ppm) was 0% each time.
For `CO/C=C(\Oc1cc(C2CCC(C(C)C)CC2)ccc1C)C(=O)OC` (stereo not drawn) [E.17, methyl (Z)-2-[5-(4-isopropylcyclohexyl)-2-methyl-phenoxy]-3-methoxy-prop-2-enoate], the inhibition of growth at 20 ppm in assay [1], in assay [5] and in [4] was not below 80% in each case. Besides, the pest or weed control at 200 ppm in assay [3] is not below 80%.
Turning to `CO/C=C(\Oc1cc(C2CCC(C(F)(F)F)CC2)ccc1C)C(=O)OC` (stereo not drawn) [E.1, methyl (Z)-3-methoxy-2-[2-methyl-5-[4-(trifluoromethyl)cyclohexyl]phenoxy] prop-2-enoate], the inhibition of growth at 20 ppm in [1] and in [4] was not below 80% throughout. The pest or weed control at 200 ppm in assay [2] and in [3] was not below 80% each time.
In the case of `CO/C=C(\Oc1cc(C2=CCC(C)(C)CC2)ccc1C)C(=O)OC` [F.10, methyl (Z)-2-[5-(4,4-dimethylcyclohexen-1-yl)-2-methyl-phenoxy]-3-methoxy-prop-2-enoate], the inhibition of growth at 20 ppm in assay [1], in assay [5] and in [4] was not below 80% in each case. In addition, the pest or weed control at 200 ppm in assay [6], in assay [2] and in assay [3] was not below 80% each time.
